Test results reported in article PMC5449454, “Anti-Double-Stranded DNA IgG Participates in Renal Fibrosis through Suppressing the Suppressor of Cytokine Signaling 1 Signals” (Frontiers in Immunology, 2017).

Tests used:
[1] = system: anti-dsDNA IgG binding to mesangial cells; test: Inhibition cell surface ELISA, anti-dsDNA IgG binding to mesangial cells; type: cell-based, murine; conditions: anti-dsDNA IgG premixed with D-form or scrambled ALW peptide; three independent experiments
Description: Common ELISAs (for binding to dsDNA or peptide) and inhibition ELISAs were performed as previously described ([8], [35]). Briefly, the KIR ELISA was carried out by adding biotinylated KIR peptide (DTHFRTFRSHSDYRRI, 5 µg/ml) to streptavidin-coated 96-well plates. For inhibition with KIR (or ALW) peptide, anti-dsDNA IgG (2 µg/ml) was pre-incubated with serially diluted peptide (from 0.04 to 80 µg/ml), and then transferred to antigen-coated 96-well plates. Alkaline phosphatase-conjugated goat anti-mouse IgG (2 µg/ml; Southern Biotech) was used as secondary antibody. Similarly, for inhibition with anti-dsDNA IgG, the FITC-labeled JAK2 loop peptide (LPQDKEYYKVKEP, 0.2 µg/ml) was pre-incubated with serially diluted anti-dsDNA IgG (from 0.02 to 20 µg/ml) before transfer to KIR-coated plates, which were detected for fluorescein intensity under a Perkin Elmer Reader (Winpact Scientific, Irvine, CA, USA). Cell surface ELISA was performed by growing mesangial cells in 96-well plates ([8], [35]). All peptides were synthesized by Sangon Biotech Company (Shanghai, China).

anti-dsDNA IgG = test: MALDI-TOF MS, catalysis of peptide by anti-dsDNA IgG; design: species or system murine; conditions: peptide 2 µg/ml with IgG (molar ratio = 1:5), 37°C, 30 min, triplicate, versus L-form ALW
Description: Matrix-assisted laser desorption/ionization–time of flight mass spectrometry was performed for identifying the sequences of peptide fragments. As described previously ([36]), an ABI 4800 Analyzer (AB Science, Foster City, CA, USA) was used for such analysis. The ALW (L-form or D-form) and KIR peptides (2 µg/ml) were mixed with anti-dsDNA IgG or control IgG (molar ratio = 1:5), respectively. The mixtures were incubated at 37°C for 30 min. Then, these samples were diluted in distilled water (1:100) and then mixed with the α-cyano-4-hydroxycinnamic acid matrix at a ratio of 1:1. Samples in triplicate were then loaded to the MALDI target. Mass spectrum was produced on 80 individual spectra of each spot.

ALWPPNLHAWVP [D-form ALW, ALW peptide with two terminal residues A and P replaced with D-form ones]
inhibition of anti-dsDNA IgG binding to mesangial cells [1]: inhibited
resistance to catalysis by anti-dsDNA IgG (anti-dsDNA IgG): enhanced resistance to catalysis
